According to patent US8937072B2, “Substituted cyanoaniline compounds, preparation and use thereof” (Sinochem Corporation, priority 2011, dated 2015):
Where two headings read alike, the source gives them in different places.

What was measured:
cucumber downy mildew = test: Protectant activity in vivo (whole plant) against cucumber downy mildew; conditions: for pest or weed control at 12.5 µg/mL: 12.5 mg/L
Experimental: (§1) The method is as followed: The whole plant is used in this test. The compound is dissolved in a proper solvent to get mother solution. The proper solvent is selected from acetone, methanol, DMF and so on according to their dissolving capability to the sample. The volume rate of solvent and testing solution (v/v) is equal to or less than 5%. The mother solution is diluted with water containing 0.1% tween-80 to get the testing solution whose concentration is designed. The testing solution is sprayed to the host plant by a special plant sprayer. The plant is inoculated with fungus after 24 hours. According to the infecting characteristic of fungus, the plant is stored in a humidity chamber and then transferred into greenhouse after infection is finished. And the other plants are placed in greenhouse directly. The activity of compound is obtained by eyeballing after 7 days in common.

corn rust = test: Protectant activity in vivo (whole plant) against corn rust; conditions: for pest or weed control at 6.25 µg/mL / pest or weed control at 25 µg/mL / pest or weed control at 100 µg/mL / pest or weed control at 400 µg/mL: Zea mays, 168 h
Experimental: as §1

cucumber gray mold = test: Activity in vitro (96-well, High Through Put): inhibition rate against cucumber gray mold; assay type: cell-based; conditions: for inhibition rate against cucumber gray mold: dose 0.9 mg/L
Experimental: The method is as followed: High Through Put is used in the test. The compound is dissolved in a proper solvent to become a testing solution whose concentration is designed. The solvent is selected from acetone, methanol, DMF and so on according to their dissolving capability to the sample. In a no animalcule condition, the testing solution and pathogens suspension are added into the cells of 96 cells culture board, which then should be placed in the constant temperature box. 24 hours later, pathogen germination or growth can be investigated by eyeballing, and the activity in vitro of the compound is evaluated based on germination or growth of control treatment.

[1] = Cucumis sativus, 168 h, 25 mg/L, read-out: the protectant activity (%) against cucumber downy mildew
[2] = Cucumis sativus, 168 h, 50 mg/L, read-out: the protectant activity (%) against cucumber downy mildew
[3] = Cucumis sativus, 168 h, 100 mg/L, read-out: the protectant activity (%) against cucumber downy mildew
[4] = Cucumis sativus, 168 h, dose 50 mg/L, read-out: protectant activity against cucumber downy mildew in vivo
[5] = 400 mg/L, read-out: the protectant activity (%) against corn rust
[6] = dose 400 mg/L, read-out: protectant activity against corn rust in vivo
[7] = 0.9 mg/L, read-out: the inhibition rate against cucumber gray mold (%)
[8] = 2.8 mg/L, read-out: the inhibition rate against cucumber gray mold (%)
[9] = 8.3 mg/L, read-out: the inhibition rate against cucumber gray mold (%)

N#Cc1c(F)c(F)c(C#N)c(Nc2ccc(O)cc2)c1F [KC16]
pest or weed control at 12.5 µg/mL (cucumber downy mildew; Cucumis sativus, 168 h): 0%
pest or weed control at 25 µg/mL (cucumber downy mildew; [1]): 0%
pest or weed control at 50 µg/mL (cucumber downy mildew; [2]): 0%
pest or weed control at 100 µg/mL (cucumber downy mildew; [3]): 20%
pest or weed control at 50 µg/mL (cucumber downy mildew; [4]): 0%
pest or weed control at 100 µg/mL (cucumber downy mildew; Cucumis sativus, 168 h, dose 100 mg/L, read-out: protectant activity against cucumber downy mildew in vivo): 20%
pest or weed control at 6.25 µg/mL (corn rust; 6.25 mg/L): 0%
pest or weed control at 25 µg/mL (corn rust; 25 mg/L): 0%
pest or weed control at 100 µg/mL (corn rust; 100 mg/L): 0%
pest or weed control at 400 µg/mL (corn rust; [5]): 0%
pest or weed control at 400 µg/mL (corn rust; [6]): 0%

Cc1ccc(Nc2c(F)c(F)c(C#N)c(F)c2C#N)cc1 [KC9]
pest or weed control at 25 µg/mL (cucumber downy mildew; [1]): 20%
pest or weed control at 50 µg/mL (cucumber downy mildew; [2]): 30%
pest or weed control at 100 µg/mL (cucumber downy mildew; [3]): 65%
pest or weed control at 25 µg/mL (cucumber downy mildew; Cucumis sativus, 168 h, dose 25 mg/L, read-out: protectant activity against cucumber downy mildew in vivo): 20%
pest or weed control at 50 µg/mL (cucumber downy mildew; [4]): 30%
inhibition at 0.3 µg/mL (cucumber gray mold; 0.3 mg/L): 0%
inhibition at 0.9 µg/mL (cucumber gray mold; [7]): 0%
inhibition at 2.8 µg/mL (cucumber gray mold; [8]): 0%
inhibition at 8.3 µg/mL (cucumber gray mold; [9]): 80%
inhibition at 2.8 µg/mL (cucumber gray mold; in vitro, dose 2.8 mg/L, read-out: inhibition rate against cucumber gray mold): 0%

N#Cc1c(F)c(Cl)c(Nc2ccccc2)c(C#N)c1F [KC17]
pest or weed control at 12.5 µg/mL (cucumber downy mildew; Cucumis sativus, 168 h): 0%
pest or weed control at 25 µg/mL (cucumber downy mildew; [1]): 0%
pest or weed control at 50 µg/mL (cucumber downy mildew; [2]): 0%
pest or weed control at 100 µg/mL (cucumber downy mildew; [3]): 0%
pest or weed control at 400 µg/mL (cucumber downy mildew; Cucumis sativus, 168 h, dose 400 mg/L): 0%
pest or weed control at 6.25 µg/mL (corn rust; 6.25 mg/L): 0%
pest or weed control at 25 µg/mL (corn rust; 25 mg/L): 0%
pest or weed control at 100 µg/mL (corn rust; 100 mg/L): 0%
pest or weed control at 400 µg/mL (corn rust; [5]): 0%
pest or weed control at 400 µg/mL (corn rust; [6]): 0%

N#Cc1c(Cl)c(Cl)c(C#N)c(Nc2ccc([N+](=O)[O-])cc2F)c1Cl [Compound C-27]
protectant activity against cucumber downy mildew in vivo (cucumber downy mildew; dose 25 mg/L): 100%
protectant activity against cucumber downy mildew in vivo (cucumber downy mildew; dose 50 mg/L): 100%
protectant activity against cucumber downy mildew in vivo (cucumber downy mildew; dose 100 mg/L): 100%
protectant activity against cucumber downy mildew in vivo (cucumber downy mildew; dose 400 mg/L): 100%
inhibition rate against cucumber gray mold (cucumber gray mold; in vitro): 80%

Cc1ccc(Nc2c(Cl)c(F)c(C#N)c(F)c2C#N)cc1 [KC19]
pest or weed control at 6.25 µg/mL (corn rust; 6.25 mg/L): 0%
pest or weed control at 25 µg/mL (corn rust; 25 mg/L): 0%
pest or weed control at 100 µg/mL (corn rust; 100 mg/L): 0%
pest or weed control at 400 µg/mL (corn rust; [5]): 0%
pest or weed control at 400 µg/mL (corn rust; [6]): 0%
inhibition at 0.3 µg/mL (cucumber gray mold; 0.3 mg/L): 0%
inhibition at 0.9 µg/mL (cucumber gray mold; [7]): 0%
inhibition at 2.8 µg/mL (cucumber gray mold; [8]): 0%
inhibition at 8.3 µg/mL (cucumber gray mold; [9]): 0%
inhibition at 25 µg/mL (cucumber gray mold; in vitro, dose 25 mg/L): 0%

N#Cc1c(Cl)c(Cl)c(Nc2cc(Cl)cnc2Cl)c(Cl)c1C#N [Compound A-85]
protectant activity against cucumber downy mildew in vivo (cucumber downy mildew; dose 400 mg/L): 100%
protectant activity against corn rust in vivo (corn rust; dose 400 mg/L): 80%

Cc1c(Cl)c([N+](=O)[O-])cc([N+](=O)[O-])c1Nc1c(Cl)c(Cl)c(C#N)c(Cl)c1C#N [Compound B-68]
protectant activity against cucumber downy mildew in vivo (cucumber downy mildew; dose 100 mg/L): 100%
protectant activity against cucumber downy mildew in vivo (cucumber downy mildew; dose 400 mg/L): 100%
inhibition rate against cucumber gray mold (cucumber gray mold; in vitro): 80%

N#Cc1c(Cl)c(Cl)c(Nc2ccc([N+](=O)[O-])cc2Cl)c(Cl)c1C#N [Compound A-15]
protectant activity against cucumber downy mildew in vivo (cucumber downy mildew; dose 50 mg/L): 100%
protectant activity against cucumber downy mildew in vivo (cucumber downy mildew; dose 100 mg/L): 100%
protectant activity against cucumber downy mildew in vivo (cucumber downy mildew; dose 400 mg/L): 100%
protectant activity against corn rust in vivo (corn rust; dose 400 mg/L): 100%
the inhibition rate against cucumber gray mold (%) (cucumber gray mold; 0.3 mg/L): 100%
the inhibition rate against cucumber gray mold (%) (cucumber gray mold; 0.9 mg/L): 100%
the inhibition rate against cucumber gray mold (%) (cucumber gray mold; 2.8 mg/L): 100%
the inhibition rate against cucumber gray mold (%) (cucumber gray mold; 8.3 mg/L): 100%

N#Cc1c(Cl)c(Cl)c(Nc2cc(C(F)(F)F)ccc2Cl)c(Cl)c1C#N [Compound A-19]
protectant activity against cucumber downy mildew in vivo (cucumber downy mildew; dose 400 mg/L): 100%
protectant activity against corn rust in vivo (corn rust; dose 400 mg/L): 80%

N#Cc1cc([N+](=O)[O-])ccc1Nc1c(Cl)c(Cl)c(C#N)c(Cl)c1C#N [Compound B-38]
protectant activity against cucumber downy mildew in vivo (cucumber downy mildew; dose 400 mg/L): 100%
protectant activity against corn rust in vivo (corn rust; dose 400 mg/L): 100%

N#Cc1c(Cl)c(Cl)c(Nc2ccc(F)cc2F)c(C#N)c1Cl [Compound B-14]
protectant activity against cucumber downy mildew in vivo (cucumber downy mildew; dose 400 mg/L): 100%
protectant activity against corn rust in vivo (corn rust; dose 400 mg/L): 100%

N#Cc1c(F)c(F)c(Nc2c(Cl)cc(C(F)(F)F)cc2Cl)c(C#N)c1F [Compound B-111]
protectant activity against cucumber downy mildew in vivo (cucumber downy mildew; dose 50 mg/L): 98%
protectant activity against cucumber downy mildew in vivo (cucumber downy mildew; dose 100 mg/L): 100%
protectant activity against cucumber downy mildew in vivo (cucumber downy mildew; dose 400 mg/L): 100%
protectant activity against corn rust in vivo (corn rust; dose 400 mg/L): 100%

N#Cc1c(Cl)c(Cl)c(Nc2ccc(Cl)cc2[N+](=O)[O-])c(Cl)c1C#N [Compound A-23]
protectant activity against cucumber downy mildew in vivo (cucumber downy mildew; dose 400 mg/L): 100%
protectant activity against corn rust in vivo (corn rust; dose 400 mg/L): 80%

N#Cc1c(F)c(Cl)c(Nc2ccc(Cl)cc2)c(C#N)c1F [KC18]
pest or weed control at 6.25 µg/mL (corn rust; 6.25 mg/L): 0%
pest or weed control at 25 µg/mL (corn rust; 25 mg/L): 0%
pest or weed control at 100 µg/mL (corn rust; 100 mg/L): 0%
pest or weed control at 400 µg/mL (corn rust; [5]): 0%
pest or weed control at 400 µg/mL (corn rust; [6]): 0%

N#Cc1c(Cl)c(Cl)c(Nc2c(Cl)cc([N+](=O)[O-])cc2Br)c(C#N)c1Cl [Compound B-55]
the protectant activity (%) against corn rust (corn rust; 6.25 mg/L): 0%
the protectant activity (%) against corn rust (corn rust; 25 mg/L): 25%
the protectant activity (%) against corn rust (corn rust; 100 mg/L): 100%
the protectant activity (%) against corn rust (corn rust; 400 mg/L): 100%
protectant activity against corn rust in vivo (corn rust; dose 100 mg/L): 100%
protectant activity against corn rust in vivo (corn rust; dose 400 mg/L): 100%

CCN(CC)c1c(Cl)c(Nc2ccccc2[N+](=O)[O-])c(C#N)c(Cl)c1C#N [Compound B-70]
protectant activity against corn rust in vivo (corn rust; dose 400 mg/L): 100%

N#Cc1c(Cl)c(Cl)c(C#N)c(Nc2ccc(Cl)cc2[N+](=O)[O-])c1Cl [Compound C-33]
protectant activity against cucumber downy mildew in vivo (cucumber downy mildew; dose 400 mg/L): 100%
protectant activity against corn rust in vivo (corn rust; dose 400 mg/L): 100%

N#Cc1c(F)c(F)c(C#N)c(Nc2ccc(Cl)cc2Cl)c1F [Compound C-71]
inhibition rate against cucumber gray mold (cucumber gray mold; in vitro): 80%

N#Cc1c(F)c(F)c(C#N)c(Nc2c(Cl)cc([N+](=O)[O-])cc2Br)c1F [Compound C-99]
protectant activity against corn rust in vivo (corn rust; dose 400 mg/L): 100%

N#Cc1c(Cl)c(Cl)c(C#N)c(Nc2c(Br)cc([N+](=O)[O-])cc2Br)c1Cl [Compound C-41]
the protectant activity (%) against corn rust (corn rust; 6.25 mg/L): 50%
the protectant activity (%) against corn rust (corn rust; 25 mg/L): 90%
the protectant activity (%) against corn rust (corn rust; 100 mg/L): 100%
the protectant activity (%) against corn rust (corn rust; 400 mg/L): 100%
protectant activity against corn rust in vivo (corn rust; dose 25 mg/L): 90%
protectant activity against corn rust in vivo (corn rust; dose 100 mg/L): 100%
protectant activity against corn rust in vivo (corn rust; dose 400 mg/L): 100%

N#Cc1cc(C#N)c(Cl)c(Nc2c(Cl)c(Cl)c(C#N)c(C#N)c2Cl)c1 [Compound A-59]
protectant activity against cucumber downy mildew in vivo (cucumber downy mildew; dose 400 mg/L): 100%
protectant activity against corn rust in vivo (corn rust; dose 400 mg/L): 100%

N#Cc1c(Cl)c(Cl)c(C#N)c(Nc2c(Cl)cc([N+](=O)[O-])cc2Cl)c1Cl [Compound C-40]
protectant activity against cucumber downy mildew in vivo (cucumber downy mildew; dose 25 mg/L): 100%
protectant activity against cucumber downy mildew in vivo (cucumber downy mildew; dose 50 mg/L): 100%
protectant activity against cucumber downy mildew in vivo (cucumber downy mildew; dose 100 mg/L): 100%
protectant activity against cucumber downy mildew in vivo (cucumber downy mildew; dose 400 mg/L): 100%
the protectant activity (%) against corn rust (corn rust; 6.25 mg/L): 30%
the protectant activity (%) against corn rust (corn rust; 25 mg/L): 80%
the protectant activity (%) against corn rust (corn rust; 100 mg/L): 100%
the protectant activity (%) against corn rust (corn rust; 400 mg/L): 100%
protectant activity against corn rust in vivo (corn rust; dose 100 mg/L): 100%
